Paper PMC7810383 (Science Advances, 2021)
Peptide text beside a SMILES is read from it. * marks the point of attachment. Cbz = O=C(OCc1ccccc1)*; CH2F = FC*

Columns and labels:
XIAP = assay type: biochemical, human
[1] = tested on: PARP cleavage in HeLa cells; assay type: cell-based, human; conditions: NAA10 RNAi 72 hours, Z-VAD-FMK 40 μM, anti-PARP immunoblot
[2] = tested on: IAPs (BIRC2, BIRC3, XIAP, BIRC6); assay type: binding, human
BIRC2 = assay type: cell-based, human
hGID/CTLH complex = assay type: binding, human; conditions: peptide on streptavidin beads, HeLa lysate, quantitative MS

| Molecule | Ubiquitination of streptavidin-bound peptide by XIAP (anti-ubiquitin immunoblot) (XIAP) | IAP enrichment in peptide pull-down, Nt-free versus Nt-Ac peptide [2] | further results |
| --- | --- | --- | --- |
| Ac or H-AAAGAAATHLKK-K-(Biotin)-NH2 [PIGS Nt-Ac biotinylated peptide] | not ubiquitinated |  |  |
| COC(=O)C[C@H](NC(=O)[C@H](C)NC(=O)[C@@H](NC(=O)OCc1ccccc1)C(C)C)C(=O)CF [Z-VAD, Benzyloxycarbonyl-Val-Ala-Asp-fluoromethyl ketone] (Cbz-Val-Ala-Asp(OMe)-CH2F) |  |  | PARP cleavage induced by NatA RNAi [1]: inhibited |
| H-ASVGECPAPVKK-K-(Biotin)-NH2 [ATP5J2 Nt-free biotinylated peptide] |  | identified IAPs as binding partners |  |
| H-AAPEEHDSPTKK-K-(Biotin)-NH2 [DDX47 Nt-free biotinylated peptide] | strongly ubiquitinated | identified IAPs as binding partners |  |
| CN[C@@H](C)C(=O)N[C@H](C(=O)N1CCC[C@H]1c1nc(C(=O)c2ccc(F)cc2)cs1)C1CCCCC1 [LCL161] |  |  | BIRC2 levels (BIRC2): IAP depletion |
| H-ATPFQEGLRTFKKK-K(Biotin)-NH2 [CASP9 Nt-free biotinylated peptide, reference compound] | levels that were comparable | preferential binding partners |  |
| H-AVPAALILREKK-K(Biotin)-NH2 [COMMD10 Nt-free biotinylated peptide] | strongly ubiquitinated | strongly enriched | hGID/CTLH complex enrichment in peptide pull-down (hGID/CTLH complex): also enriched |
| H-MEELIVELRLKKK-PEG-(Biotin) [AFAP1 Nt-free biotinylated peptide] |  | did not enrich IAPs |  |
| H-AVPSPPPASPKK-K(Biotin) [HTRA2 Nt-free biotinylated peptide, reference compound] |  | preferential binding partners |  |
| H-MDDDIAALVVKKK-PEG-(Biotin) [ACTB Nt-free biotinylated peptide] |  | did not enrich IAPs |  |
| H-AAPWRRWPTGKK-K-(Biotin)-NH2 [TMEM223 Nt-free biotinylated peptide] |  | identified IAPs as binding partners |  |
| H-AQFAFESDLHSLLQL-PEG-K(Biotin)-CONH2 [CDC20 Nt-free biotinylated peptide] |  | robust interactions |  |
| H-MAVPAALILREKK-K(Biotin) [Met-COMMD10 Nt-free biotinylated peptide] |  | did not enrich IAPs |  |
| H-AVGKNKRLTKK-K-FITC [RPS3A Nt-free peptide] |  | no IAP enrichment |  |
| Ac or H-AQFAFESDLHSLLQL-PEG-K(Biotin)-CONH2 [CDC20 Nt-Ac biotinylated peptide] |  | no enrichment |  |
| H-AVPIAQKSEPFKKK-K(Biotin)-NH2 [DIABLO Nt-free biotinylated peptide, reference compound] | levels that were comparable | preferential binding partners |  |
| H-APPSVFAEVPQAQPV-PEG-K(Biotin)-CONH2 [GOT1 Nt-free biotinylated peptide] |  | no IAP enrichment |  |
| H-AISSSSCELPLVAVF-PEG-K(Biotin)-CONH2 [NIT1 Nt-free biotinylated peptide] |  | strongly enriched |  |
| H-AAAGAAATHLKK-K-(Biotin)-NH2 [PIGS Nt-free biotinylated peptide] | not ubiquitinated | no IAP enrichment |  |
